Assay results published in patent US20020042121A1, “METHOD FOR MEASURING THE ASSOCIATION OF SUBSTRUCTURES OF PATHOLOGICAL PROTEIN DEPOSITIONS” (priority 1997, published 2002).

Biological target: T1, synthetic Aβ1-42 aggregates (Homo sapiens, UniProt P05067)
T1 construct: synthetic Aβ1-42 aggregates
Assay: FCS measurement of association of the probe Aβ1-42-Cy2 to Aβ1-42 aggregates in the presence of a suspected active substance (screening model)
Type: biochemical
Description: A screening method for detecting active substances for the treatment of diseases associated with pathological protein depositions, which is analogous with the method according to the invention, is based on the fact that the association of substructures of the pathological protein depositions, structures forming pathological protein depositions, structures corresponding to pathological protein depositions and/or pathological protein depositions to substructures of the pathological protein depositions, structures forming pathological protein depositions, structures corresponding to pathological protein depositions as targets is measured in the presence of suspected active substances. As an alternative, association of substructures of pathological protein depositions, structures forming pathological protein depositions, structures corresponding to pathological protein depositions and/or pathological protein depositions to substructures of the pathological protein depositions, structures forming pathological protein depositions, structures corresponding to pathological protein depositions as targets is first performed, and then the reversal of the association under the action of suspected active substances is observed. Then, those compounds are identified as active substances which are capable of causing a reversal of the association in a significant way. […]

T1 sequence (P05067 672-713 limits assumed): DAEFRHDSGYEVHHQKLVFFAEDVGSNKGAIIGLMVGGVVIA

Nc1c(/N=N/c2ccc(-c3ccc(/N=N/c4cc(S(=O)(=O)O)c5ccccc5c4N)cc3)cc2)cc(S(=O)(=O)O)c2ccccc12 [Congo red]
detectable peaks as compared to the control batch (1 mM Congo red, FCS, 20 measurements each with one minute of measuring time, FIG. 13 bottom vs top): significant decrease of the detectable peaks | activity at 1000 µM (read-out: decrease of the signal intensity of the homologous association to): 20%
